In one data set the test system is rhinovirus B14. The data set is described as follows: Antiviral activity against Human rhinovirus B14 infected in human H1-HeLa cells incubated for 72 hrs. Type of data set: functional, organism-based. Conditions: Rhinovirus B.
Data set [1] in a line: Cytotoxicity against human H1-HeLa cells assessed as reduction in cell viability incubated for 72 hrs. The class given is toxicity, cell-based.
Data set [2] is described as follows: Selectivity index, ratio of CC50 for cytotoxicity against human H1-HeLa cells to EC50 for antiviral activity against Human rhinovirus B14 infected in human H1-HeLa cells. Type of data set: toxicity, cell-based. Particulars: read-out: Ratio CC50/EC50.
The subject of data set [3] is SARS-CoV-2. The data set is described as follows: Antiviral activity against SARS-CoV-2 infected in african green monkey Vero cells assessed as reduction in number of spike-protein expressing cells pre-infected for 30 mins followed by compound addition and measured 48 hrs post-infection by DAPI staining based immunofluorescence analysis. Type of data set: functional, organism-based. Conditions: Severe acute respiratory syndrome coronavirus 2, Vero.

A short description of data set [4]: Cytotoxicity against African green monkey Vero cells assessed as reduction in cell viability incubated for 48 hrs by MTT assay. The class given is toxicity, cell-based. Particulars: chlorocebus sabaeus. A general note: Tetrazolium dyes change colour on reduction, which living cells bring about.
Data set [5] in a line: Selectivity index, ratio of CC50 for cytotoxicity against African green monkey Vero cells to EC50 for antiviral activity against SARS-CoV-2 infected in african green monkey Vero cells assessed as reduction in number of spike-protein expressing cells. Type of data set: toxicity, cell-based. Conditions: read-out: Ratio CC50/EC50.
Data set [6] has as its system SARS-CoV-2. The data set is described as follows: Antiviral activity against SARS-CoV-2 Wuhan-like (hCoV-19/Korea/KCDC06/2020) infected in human Calu-3 cells assessed as reduction in number of spike-protein expressing cells pre-infected for 30 mins followed by compound addition and measured 48 hrs post-infection by DAPI staining based immunofluorescence analysis relative to control. Conditions: Severe acute respiratory syndrome coronavirus 2, Wuhan-like (hCoV-19/Korea/KCDC06/2020). The class given is functional, organism-based.

Data set [7] concerns SARS-CoV-2. The data set is described as follows: Antiviral activity against SARS-CoV-2 Gamma (hCoV-19/Korea95637/KDCA/2021) infected in human Calu-3 cells assessed as reduction in number of spike-protein expressing cells pre-infected for 30 mins followed by compound addition and measured 48 hrs post-infection by DAPI staining based immunofluorescence analysis relative to control. Particulars: Severe acute respiratory syndrome coronavirus 2, Gamma (hCoV-19/Korea95637/KDCA/2021). Type of data set: functional, organism-based.

Data set [8] deals with SARS-CoV-2. The data set is described as follows: Antiviral activity against SARS-CoV-2 Delta (hCoV-19/Korea/KDCA119861/2021) infected in human Calu-3 cells assessed as reduction in number of spike-protein expressing cells pre-infected for 30 mins followed by compound addition and measured 48 hrs post-infection by DAPI staining based immunofluorescence analysis relative to control. Conditions: Severe acute respiratory syndrome coronavirus 2, Delta (hCoV-19/Korea/KDCA119861/2021). The class given is functional, organism-based.

The test system of data set [9] is SARS-CoV-2. The data set is described as follows: Antiviral activity against SARS-CoV-2 Omicron (hCoV-19/Korea/KDCA447321/2021) infected in human Calu-3 cells assessed as reduction in number of spike-protein expressing cells pre-infected for 30 mins followed by compound addition and measured 48 hrs post-infection by DAPI staining based immunofluorescence analysis relative to control. Particulars: Severe acute respiratory syndrome coronavirus 2, Omicron (hCoV-19/Korea/KDCA447321/2021). Type of data set: functional, organism-based.

Data set [10] is described as follows: Cytotoxicity against human Calu-3 cells assessed as reduction in cell viability incubated for 48 hrs by MTT assay. Type of data set: toxicity, cell-based.
Data set [11] in a line: Selectivity index, ratio of CC50 for cytotoxicity against human Calu-3 cells to EC50 for antiviral activity against SARS-CoV-2 Wuhan-like (hCoV-19/Korea/KCDC06/2020) infected in human Calu-3 cells assessed as reduction in number of spike-protein expressing cells. Conditions: read-out: Ratio CC50/EC50. The class given is toxicity, cell-based.
The nature of data set [12]: Selectivity index, ratio of CC50 for cytotoxicity against human Calu-3 cells to EC50 for antiviral activity against SARS-CoV-2 Gamma (hCoV-19/Korea95637/KDCA/2021) infected in human Calu-3 cells assessed as reduction in number of spike-protein expressing cells. Type of data set: toxicity, cell-based. Particulars: read-out: Ratio CC50/EC50.
Data set [13] can be described thus: Selectivity index, ratio of CC50 for cytotoxicity against human Calu-3 cells to EC50 for antiviral activity against SARS-CoV-2 Delta (hCoV-19/Korea/KDCA119861/2021) infected in human Calu-3 cells assessed as reduction in number of spike-protein expressing cells. Type of data set: toxicity, cell-based. Conditions: read-out: Ratio CC50/EC50.
A short description of data set [14]: Selectivity index, ratio of CC50 for cytotoxicity against human Calu-3 cells to EC50 for antiviral activity against SARS-CoV-2 Omicron (hCoV-19/Korea/KDCA447321/2021) infected in human Calu-3 cells assessed as reduction in number of spike-protein expressing cells. The class given is toxicity, cell-based. Conditions: read-out: Ratio CC50/EC50.
In data set [15] the test system is Middle East respiratory syndrome-related coronavirus. The data set is described as follows: Antiviral activity against MERS-CoV KOR/KNIH/002_05_2015 infected in human Huh-7 cells assessed as inhibition of virus-induced cytopathic effect measured 2 to 7 days post infection by MTT-based cell viability assay. The class given is functional, organism-based. Particulars: KOR/KNIH/002_05_2015, Huh-7.

Data set [16] is described as follows: Cytotoxicity against human Huh-7 cells assessed as reduction in cell viability by MTT-based cell viability assay. The class given is toxicity.
The nature of data set [17]: Selectivity index, ratio of CC50 for cytotoxicity against human Huh-7 cells to EC50 for antiviral activity against MERS-CoV KOR/KNIH/002_05_2015 infected in human Huh-7 cells assessed as inhibition of virus-induced cytopathic effect. Particulars: read-out: Ratio CC50/EC50. The class given is toxicity, cell-based.
Another data set has as its system Human coronavirus NL63. The data set is described as follows: Antiviral activity against HCoV-NL63 infected in LLC-MK2 cells assessed as inhibition of virus-induced cytopathic effect measured 2 to 7 days post infection by MTT-based cell viability assay. Type of data set: functional, organism-based. For orientation: Cytopathic effects are the visible damage that an infection or toxin causes in cultured cells.

Data set [18] is described as follows: Cytotoxicity against rhesus monkey LLC-MK2 cells assessed as reduction in cell viability by MTT-based cell viability assay. Type of data set: toxicity, Macaca mulatta.
Data set [19] is described as follows: Selectivity index, ratio of CC50 for cytotoxicity against rhesus monkey LLC-MK2 cells to EC50 for antiviral activity against HCoV-NL63 infected in rhesus monkey LLC-MK2 cells assessed as inhibition of virus-induced cytopathic effect. The class given is toxicity, cell-based. Particulars: read-out: Ratio CC50/EC50.
The test system of another data set is Zaire ebolavirus. The data set is described as follows: Antiviral activity against Zaire Ebola virus infected in HEK293T cells transfected with viral replication protein and Renilla luciferase pre-infected for 4 hrs followed by compound addition and measured after 48 hrs by Dual-luciferase reporter assay. Particulars: HEK-293T. Type of data set: functional, organism-based. Background: A reporter such as luciferase makes a cellular process visible.

Data set [20] can be described thus: Cytotoxicity against HEK293T cells assessed as reduction in cell viability measured after 48 hrs by MTT assay. The class given is toxicity, cell-based, HEK-293T. Particulars: human.
Data set [21] is described as follows: Selectivity index, ratio of CC50 for cytotoxicity against HEK293T cells to EC50 for antiviral activity against Zaire Ebola virus infected in HEK293T cells transfected with viral replication protein and Renilla luciferase. The class given is toxicity, cell-based. Conditions: human, read-out: Ratio CC50/EC50.
The test system of another data set is dengue virus type 2. The data set is described as follows: Antiviral activity against Dengue virus 2 infected in BHK-21 cells transfected with Renilla luciferase tagged viral subgenomic replicon incubated for 48 hrs by luciferase based assay. Type of data set: functional, organism-based. Conditions: BHK-21, 48 h.
Data set [22] is described as follows: Cytotoxicity against golden hamster BHK-21 cells assessed as reduction in cell viability by MTT assay. The class given is toxicity, cell-based, Mesocricetus auratus.
The nature of data set [23]: Selectivity index, ratio of CC50 for cytotoxicity against golden hamster BHK-21 cells to EC50 for antiviral activity against Dengue virus 2 infected in BHK-21 cells transfected with Renilla luciferase tagged viral subgenomic replicon. Type of data set: toxicity, cell-based. Particulars: read-out: Ratio CC50/EC50.
In another data set the test system is Influenza A virus (H1N1). The data set is described as follows: Antiviral activity against Influenza A virus A/Puerto Rico/8/34 (H1N1) infected in MDCK cells assessed as reduction in virus-induced cytopathic effect incubated for 3 days in presence of TPCK-treated trypsin by MTT assay. The class given is functional, organism-based. Particulars: 72 h.
The next data set concerns Influenza A virus. The data set is described as follows: Antiviral activity against Influenza A virus A/Hong Kong/8/68 (H3N2) infected in MDCK cells assessed as reduction in virus-induced cytopathic effect incubated for 3 days in presence of TPCK-treated trypsin by MTT assay. Type of data set: functional, organism-based. Particulars: 72 h.
Another data set has as its system Influenza B virus. The data set is described as follows: Antiviral activity against Influenza B virus B/Lee/40 infected in MDCK cells assessed as reduction in virus-induced cytopathic effect incubated for 3 days in presence of TPCK-treated trypsin by MTT assay. The class given is functional, organism-based. Conditions: B/Lee/40, MDCK, 72 h.
Data set [24] can be described thus: Cytotoxicity against MDCK cells assessed as reduction in cell viability incubated for 3 days by MTT assay. Particulars: dog, time 3 day. Type of data set: toxicity, cell-based, Canis lupus familiaris.
A short description of data set [25]: Selectivity index, ratio of CC50 for cytotoxicity against MDCK cells to EC50 for antiviral activity against Influenza A virus A/Puerto Rico/8/34 (H1N1) infected in MDCK cells assessed as reduction in virus-induced cytopathic effect. The class given is toxicity, cell-based. Particulars: dog, read-out: Ratio CC50/EC50.
Data set [26] can be described thus: Selectivity index, ratio of CC50 for cytotoxicity against MDCK cells to EC50 for antiviral activity against Influenza A virus A/Hong Kong/8/68 (H3N2) infected in MDCK cells assessed as reduction in virus-induced cytopathic effect. The class given is toxicity, cell-based. Particulars: dog, read-out: Ratio CC50/EC50.
Data set [27] in a line: Selectivity index, ratio of CC50 for cytotoxicity against MDCK cells to EC50 for antiviral activity against Influenza B virus B/Lee/40 infected in MDCK cells assessed as reduction in virus-induced cytopathic effect. Type of data set: toxicity, cell-based. Particulars: dog, read-out: Ratio CC50/EC50.

In general, EC50 refers to the concentration that produces a half-maximal response. The CC50 is the concentration at which the toxic effect on the cells reaches its halfway point. In turn, `CCOC(=O)/C=C/[C@H](C[C@@H]1CCNC1=O)NC(=O)[C@@H](CC(=O)[C@@H](NC(=O)c1cc(C)on1)C(C)C)Cc1ccc(F)cc1` yielded an EC50 with rhinovirus B14 of 0.57 µM. Moreover, in data set [1], the CC50 at 72 h was more than 100 µM. Besides, in [2], the selectivity ratio was more than 176.

Turning to `CCC(CC)COC(=O)[C@H](C)N[P@](=O)(OC[C@H]1O[C@@](C#N)(c2ccc3c(N)ncnn23)[C@H](O)[C@@H]1O)Oc1ccccc1`, the concentration giving a half-maximal response (EC50) in the data set with SARS-CoV-2 [3] was 4.83 µM; with SARS-CoV-2 [6] it was 0.57 µM; in the data set on SARS-CoV-2 [7] it was 1.37 µM; in the data set on SARS-CoV-2 [8], 2.4 µM; with SARS-CoV-2 [9], 0.984 µM; in [15], less than 0.042 µM. In addition, the EC50 with Human coronavirus NL63 came to 0.14 µM; in the data set with Zaire ebolavirus it was 0.18 µM. In addition, the CC50 at 48 h in [4] is more than 100 µM; in data set [10], more than 100 µM; in data set [20] it was 2.62 µM. For the same compound, the selectivity ratio is more than 20.7 in data set [5]; more than 174 in data set [11]; more than 73.1 in [12]; more than 41.6 in [13]; more than 24.7 in data set [14]; more than 348 in [17]. Moreover, the selectivity ratio in data set [19] is more than 702; in data set [21], 14.2. Further, the CC50 in [16] was 19.6 µM; in data set [18] it was more than 100 µM.

`NC(=O)c1ncn([C@@H]2O[C@H](CO)[C@@H](O)[C@H]2O)n1` [RIBAVIRIN]: the EC50 stood at 3.47 µM in the data set on dengue virus type 2, 17.3 µM in the data set with Influenza A virus (H1N1), 17.2 µM with Influenza A virus and 15.7 µM in the data set with Influenza B virus. The CC50 in [22] was more than 100 µM. Also, the selectivity ratio was more than 28.8 in data set [23], more than 5.77 in data set [25], more than 5.82 in data set [26] and more than 6.39 in data set [27]. Also, the CC50 at 72 h in data set [24] was more than 100 µM.

The values are drawn from ChEMBL document CHEMBL6182943, “Identification of 4'-Thiouridine as an Orally Available Antiviral Agent Targeting Both RdRp and NiRAN Functions of SARS-CoV-2 Nsp12” (J Med Chem, 2025).
